Data reported in patent US20220242879A1, “FUSED HETEROCYCLE DERIVATIVES” (Janssen Sciences Ireland Unlimited Company, priority 2019, published 2022).

Key:
[1] = test system: HBV; assay: Anti-HBV activity, HepG2.117 cell line, intracellular HBV DNA by real-time PCR; assay type: cell-based, Hepatitis B virus; settings: Hepatitis B virus, 72 h; mean value; HepG2.117 cells, 3 days of treatment, intracellular HBV DNA; read-out: HBV-AVE-HepG2.117 EC50
Experimental: The anti HBV activity was measured using the HepG2.117 cell line, a stable, inducibly HBV producing cell line, which replicates HBV in the absence of doxicycline (Tet-off system). The HepG2 cell line is available from ATCC® under number HB-8065. Transfection of the HepG2 cell line can be as described in Sun and Nassal 2006 Journal of Hepatology 45 (2006) 636-645 “Stable HepG2- and Huh7-based human hepatoma cell lines for efficient regulated expression of infectious hepatitis B virus”.
For the antiviral assay, HBV replication was induced, followed by a treatment with serially diluted compound in 96-well plates. After 3 days of treatment, the antiviral activity was determined by, quantification of intracellular HBV DNA using real-time PCR and an HBV specific primer set and probe.

[2] = Cytotoxicity, ATPlite Luminescence Assay; assay type: cell-based, human; settings: human, HepG2.117 cells; mean value; cells incubated for 3 days, viability by ATPlite; read-out: TOX-HepC2.117 CC50
Experimental: Cytotoxicity of the compounds was tested using HepG2 or HepG2.117 cells, incubated for 3 days in the presence of compounds. The viability of the cells was assessed using the PERKIN ELMER ATPlite Luminescence Assay System.”

SMILES | EC50 [1] | CC50 at 3 days [2]
O=C(c1ccc(Cl)c(Cl)c1)N1CCc2nn3c(c2C1)-c1ncsc1CCC3 [Compound 46, (3,4-Dichlorophenyl)(4,5,6,9,10,12-hexahydro-11H-pyrido[4′,3′:3,4]pyrazolo[1,5-a][1,3]-thiazolo[4,5-c]azepin-11-yl)methanone] | 0.236 µM | 27.1 µM
O=C(c1ccc(Cl)c(Cl)c1)N1CCc2nn3c(c2C1)-c1n[nH]cc1CC(CO)C3 (stereo not drawn) [Compound 43, (3,4-Dichlorophenyl)[5-(hydroxymethyl)-2,5,6,9,10,12-hexahydropyrazolo[3,4-c]pyrido-[4′,3′:3,4]pyrazolo[1,5-a]azepin-11(41)-yl]methanone] | 2.32 µM | > 50 µM
O=C(c1ccc(Cl)c(Cl)c1)N1CCc2nn3c(c2C1)-c1nocc1CC(CO)C3 (stereo not drawn) [Compound 27] | 0.393 µM | > 50 µM
C=C1Cc2c(noc2N(C)C)-c2c3c(nn2C1)CCN(C(=O)c1ccc(Cl)c(Cl)c1)C3 [Compound 26, (3,4-Dichlorophenyl)[3-(dimethylamino)-5-methylidene-5,6,9,10-tetrahydro-4H-[1,2]oxazolo-[3,4-c]pyrido[4′,3′:3,4]pyrazolo[1,5-a]azepin-11(12H)-yl]methanone] | 1.15 µM | > 50 µM
Cn1ncc2c1-c1c3c(nn1CC2)CCN(C(=O)c1ccc(Cl)c(Cl)c1)C3 [Compound 9, (3,4-Dichlorophenyl)(1-methyl-1,4,5,8,9,11-hexahydro-10H-pyrazolo[3,4-c]pyrazolo-[1,5-a:4,3-c′]dipyridin-10-yl)methanone] | > 50 µM | > 50 µM
O=C(c1ccc(Cl)c(Cl)c1)N1CCc2nn3c(c2C1)-c1ncoc1CCC3 [Compound 40, (3,4-Dichlorophenyl)(4,5,6,9,10,12-hexahydro-11H-[1,3]oxazolo[4,5-c]pyrido-[4′,3′:3,4]pyrazolo[1,5-a]azepin-11-yl)methanone] | 0.499 µM | > 50 µM
O=C(c1ccc(Cl)c(Cl)c1)N1CCc2nn3c(c2C1)-c1n[nH]cc1CC3 [Compound 6, (3,4-Dichlorophenyl)(2,4,5,8,9,11-hexahydro-10H-pyrazolo[3,4-c]pyrazolo[1,5-a:4,3-c′]-dipyridin-10-yl)methanone] | 0.208 µM | > 50 µM
C[C@@H]1Cc2nn3c(c2CN1C(=O)c1ccc(Cl)c(Cl)c1)-c1nocc1CCC3 [Compound 14, (3,4-dichlorophenyl)[(10R)-10-methyl-5,6,9,10-tetrahydro-4H-[1,2]oxazolo-[3,4-c]pyrido[4′,3′:3,4]pyrazolo[1,5-a]azepin-11(12H)-yl]methanone] | 0.213 µM | 39.2 µM
O=C(c1ccc(Cl)c(Cl)c1)N1CCc2nn3c(c2C1)-c1nc[nH]c1CCC3 [Compound 44, (3,4-Dichlorophenyl)(4,5,6,9,10,12-hexahydroimidazo[4,5-c]pyrido[4′,3′:3,4]pyrazolo[1,5-a]azepin-11(3H)-yl)methanone] | 0.574 µM | > 50 µM
Cc1onc2c1CCn1nc3c(c1-2)CN(C(=O)c1ccc(Cl)c(Cl)c1)CC3 [Compound 2] | 0.921 µM | 41.9 µM
COC1Cc2conc2-c2c3c(nn2C1)CCN(C(=O)c1ccc(Cl)c(Cl)c1)C3 (stereo not drawn) [Compound 20, (3,4-Dichlorophenyl)(5-methoxy-5,6,9,10-tetrahydro-4H-isoxazolo[3,4-c]pyrido[4′,3′:3,4]-pyrazolo[1,5-a]azepin-11(12H)-yl)methanone] | 0.3 µM | > 50 µM
CCNC(=O)C1Cc2conc2-c2c3c(nn2C1)CCN(C(=O)c1ccc(Cl)c(Cl)c1)C3 (stereo not drawn) [Compound 32, 11-(3,4-Dichlorobenzoyl)-N-ethyl-5,6,9,10,11,12-hexahydro-4H-[1,2]oxazolo[3,4-c]pyrido-[4′,3′:3,4]pyrazolo[1,5-a]azepine-5-carboxamide] | 0.09 µM | > 50 µM
Cn1cnc2c1CCCn1nc3c(c1-2)CN(C(=O)c1ccc(Cl)c(Cl)c1)CC3 [Compound 45, (3,4-Dichlorophenyl)(3-methyl-4,5,6,9,10,12-hexahydroimidazo[4,5-c]pyrido[4′,3′:3,4]pyrazolo-[1,5-a]azepin-11(3H)-yl)methanone] | 4.97 µM | > 50 µM
Cn1cc2c(n1)-c1c3c(nn1CCC2)CCN(C(=O)c1ccc(Cl)c(Cl)c1)C3 [Compound 42, (3,4-Dichlorophenyl)(2-methyl-2,5,6,9,10,12-hexahydropyrazolo[3,4-c]pyrido[4′,3′:3,4]-pyrazolo[1,5-a]azepin-11(4H)-yl)methanone] | > 48.8 µM | > 50 µM
Cc1nc2c(s1)CCn1nc3c(c1-2)CN(C(=O)c1ccc(Cl)c(Cl)c1)CC3 [Compound 10, (3,4-Dichlorophenyl)(2-methyl-4,8,9,11-tetrahydro[1,3]thiazolo[4,5-c]pyrazolo[1,5-a:4,3-c′]-dipyridin-10(5H)-yl)methanone] | 8.06 µM | > 10 µM
O=C(c1ccc(Cl)c(Cl)c1)N1CCc2nn3c(c2C1)-c1nocc1CC(C(=O)N1CCOCC1)C3 (stereo not drawn) [Compound 38, [1-(3,4-Dichlorobenzoyl)-5,6,9,10,11,12-hexahydro-4H-[1,2]oxazolo[3,4-c]pyrido[4′,3′:3,4]-pyrazolo[1,5-a]azepin-5-yl](morpholin-4-yl)methanone] | 1.44 µM | > 50 µM
Nc1onc2c1CC(O)(CO)Cn1nc3c(c1-2)CN(C(=O)c1ccc(Cl)c(Cl)c1)CC3 (stereo not drawn) [Compound 24, [3-Amino-5-hydroxy-5-(hydroxymethyl)-5,6,9,10-tetrahydro-4H-[1,2]oxazolo[3,4-c]pyrido-[4′,3′:3,4]pyrazolo[1,5-a]azepin-11(12H)-yl](3,4-dichlorophenyl)methanone] | 1.59 µM | > 50 µM
C=C1Cc2c(noc2N)-c2c3c(nn2C1)CCN(C(=O)c1ccc(Cl)c(Cl)c1)C3 [Compound 23, (3-Amino-5-methylidene-5,6,9,10-tetrahydro-4H-[1,2]oxazolo[3,4-c]pyrido[4′,3′:3,4]pyrazolo-[1,5-a]azepin-11(12H)-yl)(3,4-dichlorophenyl)methanone] | 0.172 µM | 21.2 µM
O=C(c1ccc(Cl)c(Cl)c1)N1CCc2nn3c(c2C1)-c1nocc1CC3 [Compound 1, (3,4-Dichlorophenyl)(4,5,8,9-tetrahydro[1,2]oxazolo[3,4-c]pyrazolo[1,5-a:4,3-c′]dipyridin-10(11H)-yl)methanone] | 1.13 µM | > 50 µM
O=C(O)C1Cc2conc2-c2c3c(nn2C1)CCN(C(=O)c1ccc(Cl)c(Cl)c1)C3 (stereo not drawn) [Compound 29, 11-(3,4-Dichlorobenzoyl)-5,6,9,10,11,12-hexahydro-4H-[1,2]oxazolo[3,4-c]pyrido[4′,3′:3,4]-pyrazolo[1,5-a]azepine-5-carboxylic Acid] | 15.5 µM | > 50 µM
O=C(NCC(F)(F)F)C1Cc2conc2-c2c3c(nn2C1)CCN(C(=O)c1ccc(Cl)c(Cl)c1)C3 (stereo not drawn) [Compound 35, 11-(3,4-Dichlorobenzoyl)-N-(2,2,2-trifluoroethyl)-5,6,9,10,11,12-hexahydro-4H-[1,2]oxazolo-[3,4-c]pyrido[4′,3′:3,4]pyrazolo[1,5-a]azepine-5-carboxamide] | 0.395 µM | > 50 µM
O=C(NCCO)C1Cc2conc2-c2c3c(nn2C1)CCN(C(=O)c1ccc(Cl)c(Cl)c1)C3 (stereo not drawn) [Compound 34, 11-(3,4-Dichlorobenzoyl)-N-(2-hydroxyethyl)-5,6,9,10,11,12-hexahydro-4H-[1,2]oxazolo-[3,4-c]pyrido[4′,3′:3,4]pyrazolo[1,5-a]azepine-5-carboxamide] | 0.358 µM | > 50 µM
CN(C)C(=O)C1Cc2conc2-c2c3c(nn2C1)CCN(C(=O)c1ccc(Cl)c(Cl)c1)C3 (stereo not drawn) [Compound 36, 11-(3,4-Dichlorobenzoyl)-N,N-dimethyl-5,6,9,10,11,12-hexahydro-4H-[1,2]oxazolo[3,4-c]pyrido[4′,3′:3,4]pyrazolo[1,5-a]azepine-5-carboxamide] | 0.686 µM | > 50 µM
C[C@@H]1Cc2nn3c(c2CN1C(=O)c1ccc(Cl)c(Cl)c1)-c1nocc1CC3 [Compound 5, (3,4-Dichlorophenyl)[(9R)-9-methyl-4,5,8,9-tetrahydro[1,2]oxazolo[3,4-c]-pyrazolo[1,5-a:4,3-c′]dipyridin-10(11H)-yl]methanone] | 0.279 µM | > 50 µM
CNC(=O)[C@H]1Cc2conc2-c2c3c(nn2C1)CCN(C(=O)c1ccc(Cl)c(Cl)c1)[C@@H]3C (single isomer, unassigned) [Compound 50] | 8.43 µM | > 50 µM
CCc1onc2c1CCCn1nc3c(c1-2)CN(C(=O)c1ccc(Cl)c(Cl)c1)CC3 [Compound 13, (3,4-Dichlorophenyl)(3-ethyl-5,6,9,10-tetrahydro-4H-[1,2]oxazolo[3,4-c]-pyrido[4′,3′:3,4]pyrazolo[1,5-a]azepin-11(12H)-yl)methanone] | 2.94 µM | 26.6 µM
Nc1nc2c(s1)CCCn1nc3c(c1-2)CN(C(=O)c1ccc(Cl)c(Cl)c1)CC3 [Compound 51, (2-amino-4,5,6,9,10,12-hexahydro-11H-pyrido[4′,3′:3,4]pyrazolo[1,5-a]thiazolo[4,5-c]azepin-11-yl)(3,4-dichlorophenyl)methanone] | > 10 µM | > 50 µM
